Measured values as given in US20150291593A1, “NOVEL HETEROARYL AND HETEROCYCLE COMPOUNDS, COMPOSITIONS AND METHODS” (HUTCHISON MEDIPHARMA LIMITED, priority 2012, published 2015).
pIC50: −log10 of the molar value.

Tests used:
p110α/p85α = target: T1, p110α/p85α (Homo sapiens, UniProt P42336); experiment: Transcreener KINASE Assay, kinase inhibition of p110α/p85α; assay type: biochemical; details: @ 1 uM
T1 construct: purchased Invitrogen
Description: PI3K kinases including p110α/p85α, p110δ/p85α and p110γ are purchased from Invitrogen, and p110β/p85α is from Millipore.
Primary screening data and IC50 values are measured using Transcreener™ KINASE Assay (Bellbrook, Catalog #3003-10K). […] It is a universal, homogenous, high throughput screening (HTS) technology using a far-red, competitive fluorescence polarization immunoassay based on the detection of ADP to monitor the activity of enzymes that catalyze group transfer reactions. Briefly, the Transcreener KINASE Assay is designed as a simple two-part, endpoint assay.
In the first step, the 25 ul kinase reaction is performed by preparing a reaction mixture containing 5 ul test compound (2% DMSO final concentration), 10 ul kinase, buffer (50 mM HEPES, 100 mM NaCl, 1 mM EGTA, 0.03% CHAPS, 3 mM MgCl2, and freshly supplemented 1 mM DTT), and 10 ul 30 uM PIP2/10 uM ATP. The plate is sealed and incubated for 80 min at room temperature. Next, 25 ul ADP detection mix is added per well. The plate is sealed again and incubated for 60 min at room temperature, and then measure fluorescence polarization by Tecan Infinite F500 Reader.
Data is analyzed and IC50s are generated using the add-in software for Microsoft Excel, Xlfit™ (version 2.0). IH %=(ADP amount under 2% DMSO-ADP amount under test compound)/ADP amount under 2% DMSO.

p110β/p85α = target: T2, p110β/p85α (Homo sapiens, UniProt P42338); experiment: Transcreener KINASE Assay, kinase inhibition of p110β/p85α; assay type: biochemical
T2 construct: purchased Millipore
T2 sequence (P42338 whole entry, species assumed): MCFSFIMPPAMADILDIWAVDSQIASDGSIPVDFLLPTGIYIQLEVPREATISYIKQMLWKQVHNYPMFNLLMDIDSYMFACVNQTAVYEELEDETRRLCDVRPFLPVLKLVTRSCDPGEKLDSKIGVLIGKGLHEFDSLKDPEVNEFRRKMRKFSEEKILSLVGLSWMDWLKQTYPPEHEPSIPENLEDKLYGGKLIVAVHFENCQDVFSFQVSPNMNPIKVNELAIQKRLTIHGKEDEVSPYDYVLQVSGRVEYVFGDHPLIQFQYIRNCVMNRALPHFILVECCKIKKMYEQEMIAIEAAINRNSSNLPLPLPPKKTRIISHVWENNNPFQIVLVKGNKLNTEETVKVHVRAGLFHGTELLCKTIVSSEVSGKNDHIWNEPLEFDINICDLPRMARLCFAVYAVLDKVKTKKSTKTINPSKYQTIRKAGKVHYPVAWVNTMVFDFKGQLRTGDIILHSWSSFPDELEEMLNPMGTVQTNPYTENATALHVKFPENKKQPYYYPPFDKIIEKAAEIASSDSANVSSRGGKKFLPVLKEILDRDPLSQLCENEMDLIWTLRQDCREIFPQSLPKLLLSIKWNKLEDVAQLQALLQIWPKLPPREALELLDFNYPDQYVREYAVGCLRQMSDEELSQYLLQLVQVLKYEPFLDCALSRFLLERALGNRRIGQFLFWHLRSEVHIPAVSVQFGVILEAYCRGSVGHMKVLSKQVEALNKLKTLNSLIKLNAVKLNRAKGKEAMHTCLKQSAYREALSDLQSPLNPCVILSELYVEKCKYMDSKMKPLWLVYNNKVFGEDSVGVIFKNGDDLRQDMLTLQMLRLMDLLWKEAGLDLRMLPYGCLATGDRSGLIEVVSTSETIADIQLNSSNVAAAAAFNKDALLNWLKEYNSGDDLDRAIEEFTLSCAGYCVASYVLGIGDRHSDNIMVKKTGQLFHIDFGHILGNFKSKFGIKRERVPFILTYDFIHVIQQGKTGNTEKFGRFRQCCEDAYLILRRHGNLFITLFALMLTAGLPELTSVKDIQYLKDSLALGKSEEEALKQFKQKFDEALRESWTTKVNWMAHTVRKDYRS
T2 sequence (P27986 whole entry partner, species assumed): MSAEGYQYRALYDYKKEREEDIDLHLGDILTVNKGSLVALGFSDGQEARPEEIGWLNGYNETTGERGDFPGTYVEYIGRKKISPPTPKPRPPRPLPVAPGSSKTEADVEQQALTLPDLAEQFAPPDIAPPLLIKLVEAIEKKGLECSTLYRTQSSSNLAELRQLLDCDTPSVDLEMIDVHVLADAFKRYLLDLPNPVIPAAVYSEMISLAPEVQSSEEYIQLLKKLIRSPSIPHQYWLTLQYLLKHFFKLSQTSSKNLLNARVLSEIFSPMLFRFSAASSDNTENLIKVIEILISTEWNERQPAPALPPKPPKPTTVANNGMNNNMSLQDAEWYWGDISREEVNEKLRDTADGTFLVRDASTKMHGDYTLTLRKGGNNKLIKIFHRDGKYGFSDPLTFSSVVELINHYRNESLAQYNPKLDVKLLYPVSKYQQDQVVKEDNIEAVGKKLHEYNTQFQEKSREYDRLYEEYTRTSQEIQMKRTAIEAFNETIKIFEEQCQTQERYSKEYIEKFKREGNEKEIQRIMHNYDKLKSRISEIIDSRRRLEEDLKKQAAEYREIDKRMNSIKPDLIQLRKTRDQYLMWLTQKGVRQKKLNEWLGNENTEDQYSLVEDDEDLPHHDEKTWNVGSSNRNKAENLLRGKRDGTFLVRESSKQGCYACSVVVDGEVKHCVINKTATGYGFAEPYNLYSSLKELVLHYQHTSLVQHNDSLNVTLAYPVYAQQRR
In short: (§1)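 Recombinant human PI3K heterodimers (p110/p85α) incubated with compound (2% DMSO final) in HEPES/NaCl/EGTA/CHAPS/MgCl2/DTT buffer with 30 uM PIP2 and 10 uM ATP (as added) for 80 min at room temperature.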

p110δ/p85α = target: T3, p110δ/p85α (Homo sapiens, UniProt O00329); experiment: Transcreener KINASE Assay, kinase inhibition of p110δ/p85α; assay type: biochemical; details: for pIC50: read-out: PI3Kδ IC50
T3 construct: purchased Invitrogen
T3 sequence (O00329 whole entry, species assumed): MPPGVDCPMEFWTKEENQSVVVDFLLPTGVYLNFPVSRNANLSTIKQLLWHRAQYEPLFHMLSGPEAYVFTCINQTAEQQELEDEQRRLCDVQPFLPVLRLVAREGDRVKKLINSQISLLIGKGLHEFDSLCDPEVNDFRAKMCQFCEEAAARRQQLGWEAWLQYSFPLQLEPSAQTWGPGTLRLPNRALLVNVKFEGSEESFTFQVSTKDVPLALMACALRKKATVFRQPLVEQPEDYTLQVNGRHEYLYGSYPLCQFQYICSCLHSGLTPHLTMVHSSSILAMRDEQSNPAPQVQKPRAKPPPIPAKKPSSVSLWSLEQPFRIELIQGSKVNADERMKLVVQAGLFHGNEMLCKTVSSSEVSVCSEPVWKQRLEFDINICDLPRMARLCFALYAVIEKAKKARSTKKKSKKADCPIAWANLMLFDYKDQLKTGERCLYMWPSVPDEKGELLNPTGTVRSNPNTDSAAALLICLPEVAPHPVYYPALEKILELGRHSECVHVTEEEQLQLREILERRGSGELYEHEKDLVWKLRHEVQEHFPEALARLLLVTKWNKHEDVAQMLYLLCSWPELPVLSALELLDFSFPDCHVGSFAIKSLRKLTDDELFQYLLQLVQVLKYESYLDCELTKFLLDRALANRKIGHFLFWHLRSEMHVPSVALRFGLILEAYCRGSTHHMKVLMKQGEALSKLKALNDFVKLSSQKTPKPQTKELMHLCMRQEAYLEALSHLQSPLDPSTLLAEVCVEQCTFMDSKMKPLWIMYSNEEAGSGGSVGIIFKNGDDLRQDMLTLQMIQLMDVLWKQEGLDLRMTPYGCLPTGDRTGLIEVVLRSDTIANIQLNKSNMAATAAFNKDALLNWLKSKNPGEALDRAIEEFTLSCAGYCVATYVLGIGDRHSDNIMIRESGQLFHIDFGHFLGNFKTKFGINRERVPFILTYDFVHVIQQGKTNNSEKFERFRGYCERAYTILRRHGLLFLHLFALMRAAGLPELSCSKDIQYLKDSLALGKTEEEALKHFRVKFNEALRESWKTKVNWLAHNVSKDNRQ
T3 sequence (P27986 whole entry partner, species assumed): as the sequence (P27986 whole entry partner, species assumed) above
In short: as §1

p110γ = target: T4, p110γ (Homo sapiens, UniProt P48736); experiment: Transcreener KINASE Assay, kinase inhibition of p110γ; assay type: biochemical; details: for pIC50: read-out: PI3Kγ IC50
T4 construct: purchased Invitrogen
T4 sequence (P48736 whole entry, species assumed): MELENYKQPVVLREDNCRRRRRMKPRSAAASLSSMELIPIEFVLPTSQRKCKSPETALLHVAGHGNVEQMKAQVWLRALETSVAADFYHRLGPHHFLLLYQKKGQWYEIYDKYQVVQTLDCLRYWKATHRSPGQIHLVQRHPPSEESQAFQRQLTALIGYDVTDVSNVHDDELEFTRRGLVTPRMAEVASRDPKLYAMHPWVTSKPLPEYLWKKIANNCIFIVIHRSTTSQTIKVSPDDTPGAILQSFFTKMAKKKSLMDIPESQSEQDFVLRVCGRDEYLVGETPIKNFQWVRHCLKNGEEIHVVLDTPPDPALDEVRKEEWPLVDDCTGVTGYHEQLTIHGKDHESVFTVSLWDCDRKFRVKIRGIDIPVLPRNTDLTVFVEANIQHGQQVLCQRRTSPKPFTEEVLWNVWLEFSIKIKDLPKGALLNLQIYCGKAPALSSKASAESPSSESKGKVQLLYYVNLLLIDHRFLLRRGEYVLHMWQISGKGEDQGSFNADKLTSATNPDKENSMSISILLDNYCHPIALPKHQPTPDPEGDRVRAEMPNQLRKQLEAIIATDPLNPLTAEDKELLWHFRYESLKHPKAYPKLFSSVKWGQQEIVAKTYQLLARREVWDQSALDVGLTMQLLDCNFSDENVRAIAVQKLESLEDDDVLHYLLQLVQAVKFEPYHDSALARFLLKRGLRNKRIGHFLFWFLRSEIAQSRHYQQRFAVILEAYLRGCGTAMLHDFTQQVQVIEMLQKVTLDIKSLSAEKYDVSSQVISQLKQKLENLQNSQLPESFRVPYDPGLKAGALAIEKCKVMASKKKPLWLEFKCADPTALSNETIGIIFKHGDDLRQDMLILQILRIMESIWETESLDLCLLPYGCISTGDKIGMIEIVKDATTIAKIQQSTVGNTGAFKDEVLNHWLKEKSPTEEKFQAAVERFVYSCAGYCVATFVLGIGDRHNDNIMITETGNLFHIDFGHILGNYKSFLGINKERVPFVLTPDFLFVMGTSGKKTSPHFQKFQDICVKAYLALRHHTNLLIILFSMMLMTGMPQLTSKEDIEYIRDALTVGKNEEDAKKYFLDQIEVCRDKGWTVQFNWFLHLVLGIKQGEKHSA
In short: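 Recombinant human PI3K complexes (p110α/p85α, p110β/p85α, p110δ/p85α, p110γ) assayed by ADP detection via competitive far-red fluorescence polarization immunoassay.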

PI3Kγ = target: T5, PI3Kγ (Mus musculus, UniProt Q9JHG7); experiment: Acumen Assay - Raw264.7 p-AKT Assay (C5a stimulated); assay type: cell-based; details: Raw264.7 macrophage cells, compound 30 min, 10 nM C5a 5 min, p-AKT (Ser473) readout; read-out: PI3Kγ cell-C5a Raw264.7 IC50
T5 construct: endogenous in cells; host or cells: Raw264.7 macrophage cells
Description: Acumen® eX3 (A Mμltilaser Microplate Cytometer For Enhanced High Content Screening): TTP LabTech
3×10^4 Raw264.7 macrophage cells were seeded into 96-well plates with DMEM+10% heat-inactivated FBS at […], 90 ul/well, overnight. After starvation for 3 hr at 37° C. under 5% CO2, Raw264.7 cells were treated with 10 ul/well various concentrations of compound or 0.5% DMSO for 30 min, and then stimulated with 10 ul/well 10 nM C5a for 5 min.
1.) Cells were fixed 110 μL of 4% pre-warmed Paraformaldehyde (2% final), incubate for 45 min at room temperature.
2.) Remove paraformaldehyde solution. Add 100 μL of ice-cold 0.1% Triton X-100 in PBS and leave at 4° C. for 30 min.
3.) Wash once in 100 μL PBS.
4.) Incubate with 100 μL blocking buffer (1% BSA, in PBS) for 2 hours at room temperature.
5.) Wash once for 5 min with 100 ul PBS.
6.) Incubate with 40 μL 1:200 dilution of phospho AKT (Ser473) rabbit antibody in antibody dilution buffer (0.1% BSA, in PBS) overnight at 4° C.
7.) Wash for 3 times for 10 min with 100 ul PBS.
8.) Incubate for 90 min at room temperature with 50 μL of goat anti-rabbit Alex488 antibody at a 1:1,000 dilution in antibody dilution buffer (0.1% BSA, in PBS). Cover plate in foil to keep out of light.
9.) Wash for 3 times for 10 min with 100 μL PBS.
10.) Add 50 μL of 1.5 μM Propidium Iodide solution to each well to determine cell number at a 1:1,000 dilution in PBS (stock: 1.5 mM).
11.) Incubate at room temperature for 30 min.
12.) Seal the plate with a black cover-seal (supplied with plate).
13.) Load the plate into the Acumen Explorer and scan with the appropriate instrument settings.

T1 sequence (P42336 whole entry, species assumed): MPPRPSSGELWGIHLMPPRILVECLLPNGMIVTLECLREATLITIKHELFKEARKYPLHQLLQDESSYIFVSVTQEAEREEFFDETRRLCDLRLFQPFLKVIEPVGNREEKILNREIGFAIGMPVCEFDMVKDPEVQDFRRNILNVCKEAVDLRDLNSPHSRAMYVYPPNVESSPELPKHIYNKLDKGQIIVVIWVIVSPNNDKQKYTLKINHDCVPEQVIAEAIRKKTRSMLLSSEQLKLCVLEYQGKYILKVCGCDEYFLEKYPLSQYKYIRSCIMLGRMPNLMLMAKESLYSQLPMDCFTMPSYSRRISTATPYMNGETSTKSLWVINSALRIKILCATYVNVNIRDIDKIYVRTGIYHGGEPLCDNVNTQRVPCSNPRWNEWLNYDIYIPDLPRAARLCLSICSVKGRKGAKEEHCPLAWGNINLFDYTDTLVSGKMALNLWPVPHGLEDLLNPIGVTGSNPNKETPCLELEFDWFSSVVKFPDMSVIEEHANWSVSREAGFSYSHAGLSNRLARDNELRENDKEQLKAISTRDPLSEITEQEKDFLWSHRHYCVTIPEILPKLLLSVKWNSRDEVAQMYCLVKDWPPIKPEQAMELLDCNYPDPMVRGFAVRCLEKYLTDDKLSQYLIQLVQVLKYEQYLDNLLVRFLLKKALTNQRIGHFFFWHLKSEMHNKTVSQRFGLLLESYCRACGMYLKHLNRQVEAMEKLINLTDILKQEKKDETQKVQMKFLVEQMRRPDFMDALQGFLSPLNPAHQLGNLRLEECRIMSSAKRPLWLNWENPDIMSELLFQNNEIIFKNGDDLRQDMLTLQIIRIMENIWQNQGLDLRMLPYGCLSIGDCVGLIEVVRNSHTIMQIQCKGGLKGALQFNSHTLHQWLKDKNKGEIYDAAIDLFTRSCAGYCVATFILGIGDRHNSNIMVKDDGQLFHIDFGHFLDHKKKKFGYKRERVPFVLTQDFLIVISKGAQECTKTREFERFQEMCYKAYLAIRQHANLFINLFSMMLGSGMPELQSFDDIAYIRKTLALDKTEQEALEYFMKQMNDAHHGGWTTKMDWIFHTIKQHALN
T1 sequence (P27986 whole entry partner, species assumed): as the sequence (P27986 whole entry partner, species assumed) above

Structure (SMILES) | PI3Kα IH % @ 1 uM (p110α/p85α) [%] | PI3Kβ IH % @ 1 uM (p110β/p85α) [%] | PI3Kδ IH % @ 1 uM (p110δ/p85α) [%] | pIC50 (p110δ/p85α) | PI3Kγ IH % @ 1 uM (p110γ) [%] | pIC50 (PI3Kγ) | pIC50 (p110γ) | pIC50 (p110β/p85α; read-out: PI3Kβ IC50)
O=c1c2cccn2nc([C@@H]2CCCN2c2ncnc3[nH]cnc23)n1-c1ccccc1 [Compound 4] | 2.6 | 17.4 | 94.1 | 8.00 | 92.4 | 5.40 |  | 
N#Cc1c(N)ncnc1N1CCC[C@H]1c1nn2cccc2c(=O)n1-c1ccccc1 [Compound 5] | 32.5 | 46.4 | 98.3 |  | 69.6 |  |  | 
N#Cc1c[nH]c2ncnc(N3CCC[C@H]3c3nn4cccc4c(=O)n3-c3cccc(Cl)c3)c12 [Compound 15] | 24.6 | 5.4 | 100 |  | 72.0 |  | 6.51 | 
NC(=O)c1c[nH]c2ncnc(N3CCC[C@H]3c3nn4cccc4c(=O)n3-c3ccccc3)c12 [Compound 94, (S)-4-(2-(4-oxo-3-phenyl-3,4-dihydropyrrolo[1,2-f][1,2,4]triazin-2-yl)pyrrolidin-1-yl)-7H-pyrrolo[2,3-d]pyrimidine-5-carboxamide] | 36.3 | 53.5 | >100 |  | >100 |  | 7.66 | 
C=Cc1c[nH]c2ncnc(N3CCC[C@H]3c3nn4cccc4c(=O)n3-c3ccccc3)c12 [Compound 98, (S)-3-phenyl-2-(1-(5-vinyl-7H-pyrrolo[2,3-d]pyrimidin-4-yl)pyrrolidin-2-yl)pyrrolo[1,2-f][1,2,4]triazin-4(3H)-one] | 16.2 | 15.2 | 88.4 |  | 87.9 |  | 7.00 | 
N#Cc1c[nH]c2ncnc(N3CCC[C@H]3c3nn4ccc(C#N)c4c(=O)n3-c3ccccc3)c12 [Compound 113] | 28.3 | 74.9 | 99.3 | 8.22 | >100 |  | 7.37 | 6.61
